The assay has as its target T1, DNA topoisomerase 1 (Homo sapiens) (UniProt P11387).
T1 sequence (whole entry): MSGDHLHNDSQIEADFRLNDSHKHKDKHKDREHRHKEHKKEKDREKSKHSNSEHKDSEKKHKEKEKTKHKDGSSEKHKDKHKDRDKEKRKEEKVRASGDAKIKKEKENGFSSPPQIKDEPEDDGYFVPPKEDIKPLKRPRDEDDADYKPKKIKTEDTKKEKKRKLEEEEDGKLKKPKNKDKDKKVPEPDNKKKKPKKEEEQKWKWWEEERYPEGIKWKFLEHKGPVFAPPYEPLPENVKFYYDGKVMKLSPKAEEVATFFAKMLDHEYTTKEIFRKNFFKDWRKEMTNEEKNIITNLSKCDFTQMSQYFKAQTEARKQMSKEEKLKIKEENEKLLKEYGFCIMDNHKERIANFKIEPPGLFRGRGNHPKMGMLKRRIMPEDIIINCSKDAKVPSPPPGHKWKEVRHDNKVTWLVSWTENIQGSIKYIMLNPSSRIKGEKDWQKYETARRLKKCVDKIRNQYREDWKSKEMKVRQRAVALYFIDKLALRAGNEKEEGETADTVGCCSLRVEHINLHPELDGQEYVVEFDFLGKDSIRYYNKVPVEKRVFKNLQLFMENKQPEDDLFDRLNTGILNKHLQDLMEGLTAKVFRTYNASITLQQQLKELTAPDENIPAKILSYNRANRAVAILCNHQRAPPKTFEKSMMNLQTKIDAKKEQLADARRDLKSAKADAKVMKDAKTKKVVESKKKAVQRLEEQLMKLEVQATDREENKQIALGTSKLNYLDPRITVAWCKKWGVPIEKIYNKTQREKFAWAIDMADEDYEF
Put plainly: Inhibitory activity against DNA-Topoisomerase I.

Active and inactive are the calls of the source. No cut-off for these calls is given here.

As to `Nc1ccc2c3c(n(CCCCl)c(=O)c2c1)-c1cc2c(cc1C3=O)OCO2`, the inhibition result was “inactive”.
Regarding `O=C1c2cc3c(cc2-c2c1c1ccccc1c(=O)n2CCCCl)OCO3`, the inhibition entry was “inactive”.

The record behind these values is ChEMBL document CHEMBL1143631, “On the binding of indeno[1,2-c]isoquinolines in the DNA-topoisomerase I cleavage complex” (J Med Chem, 2005).
